Experiments:
Wistar rats [1] = test: Mechanical hyperalgesia (Randall-Selitto paw pressure) in iodoacetate rat model of osteoarthritic pain; type: in vivo; conditions: for paw pressure withdrawal threshold compared to iodoacetate/vehicle treated animals: day 3 after iodoacetate
Wistar rats [2] = test: Tactile allodynia (von Frey filaments) in iodoacetate rat model of osteoarthritic pain; type: in vivo
Sprague Dawley rats [3] = test: TNF-induced reduction of forelimb grip strength, biceps brachii muscle; type: in vivo, rat; conditions: for reversal of the TNF induced reduction of grip strength: 6 hours after TNF 1 μg into biceps brachii, 30 to 60 minutes after drug; for MPE versus vehicle, grip strength: FIG. 4; for dose at which the effect of TNF on grip strength is reversed / grip strength improved: i.p., grip strength test
Protocol: (§1) Intramuscular injection of tumor necrosis factor-alpha (TNF) was used as a model of muscular mechanical hyperalgesia, which occurs in the human fibromyalgia, myofascial pain syndrome, back pain or osteoarthritis.
(§2) Mechanical withdrawal thresholds to muscle pressure were measured with an analgesimeter exerting pressure on the gastrocnemius muscle previously injected with TNF. Forelimb grip strength was measured with a digital grip force meter after TNF injection into the biceps brachii muscles.
(§3) Adult male Sprague Dawley rats with a body weight of 250 g to 300 g were used (supplier: Charles River Sulzfeld Germany). Animals were group-housed (3 animals per cage) and maintained in a room with controlled temperature (21-22° C.) and a reversed light-dark cycle (12 h/12 h) with food and water available ad libitum. All experiments were approved by the Bavarian State animal experimentation committee and carried out in accordance with its regulations.
(§4) Recombinant rat tumor necrosis factor alpha (herein referred to as TNF) was obtained from R&D Systems, Minneapolis, Minn., USA. TNF was diluted in 0.9% NaCl and used in a concentration of 1 μg in 50 μl. Injections were performed in short halothane narcosis with a 30 g needle bilaterally into the gastrocnemius or into the biceps brachii muscle. All rats were used to the behavioral tests before injections and baseline values were recorded over three test days.
Grip strength of the forelimbs was tested with a digital grip force meter (DFIS series, Chatillon, Greensboro, N.C., USA). The rat was positioned to grab the grid with the forelimbs and was gently pulled so that the grip strength could be recorded. Means of three trials were calculated. The effect of the TNF treatment was calculated for each animal separately and only animals with a significant TNF effect were included for further analysis.
Rats were injected with TNF into the M. biceps brachii at 8 am. 6 hours later, grip strength of the forelimbs was tested with a digital grip force meter. Drugs were applied, and grip strength was again tested after 30 to 60 minutes.
(§5) […] Injection volume of i.p. injections was 0.5 ml.
(§6) Data are shown in graphs displaying means and SEMs. Pre- and post-treatment data were compared using ANOVA (Analysis Of Variance) and a Tukey post hoc test. Means of treatment groups were compared using a one-way ANOVA and Dunnett's post hoc Test. Maximal possible effects (MPE) were calculated for all types of treatment.

Sprague Dawley rats [4] = test: TNF-induced muscle pressure hyperalgesia, gastrocnemius muscle (Randall-Selitto analgesimeter); type: in vivo, rat; conditions: for Maximal Possible Effect (MPE) versus vehicle, muscle pressure: FIG. 2; for reversal of muscular mechanical hyperalgesia (withdrawal thresholds to pressure): 18 hours after TNF 1 μg into gastrocnemius, 30 to 60 minutes after drug; for full reversal of the muscle hyperalgesia: doses tested i.p.: pregabalin 30 and 100 mg/kg, gabapentin 100 mg/kg
Protocol: as §1, §2, §3, §4
Mechanical withdrawal thresholds to muscle pressure were measured with an analgesimeter (Ugo Basile, Comerio, Italy). The rat is allowed to crawl into a sock which helps the rat to relax. The hind limbs were positioned such that an increasing pressure could be applied onto the gastrocnemius muscle (maximum 250 g). The pressure needed to elicit withdrawal was recorded. Means of 3 trials for each hind limb were calculated (interstimulus interval of >30 sec). Only animals with a significant TNF effect were included for further analysis.
Rats were injected with TNF into the M. gastrocnemius at […]. 18 hours later, rats were tested for pressure hyperalgesia pre- and post-application of the drugs. Rats were tested for pressure hyperalgesia 30 to 60 minutes after drug administration.
as §5, §6

[5] = 3 mg/kg s.c., day 7 after iodoacetate
[6] = 30 mg/kg p.o., day 7 after iodoacetate

CN1CC[C@]23c4c5ccc(O)c4O[C@H]2[C@@H](O)C=C[C@H]3[C@H]1C5 [morphine]
paw pressure withdrawal threshold compared to iodoacetate/vehicle treated animals (Wistar rats [1]; 3 mg/kg s.c.): increase in paw pressure withdrawal threshold
mechanical hyperalgesia (Wistar rats [1]; [5]): reduced mechanical hyperalgesia
improvement of tactile allodynia (Wistar rats [2]; 3 mg/kg s.c., day 3 after iodoacetate): improved
improvement of tactile allodynia (Wistar rats [2]; [5]): improved

O=C(O)Cc1ccccc1Nc1c(Cl)cccc1Cl [diclofenac]
paw pressure withdrawal threshold compared to iodoacetate/vehicle treated animals (Wistar rats [1]; 30 mg/kg s.c.): increase in paw pressure withdrawal threshold
mechanical hyperalgesia (Wistar rats [1]; 30 mg/kg s.c., day 7 after iodoacetate): reduced mechanical hyperalgesia

COC[C@@H](NC(C)=O)C(=O)NCc1ccccc1 [lacosamide, (R)-2-acetamido-N-benzyl-3-methoxy-propionamide]
paw pressure withdrawal threshold compared to iodoacetate/vehicle treated animals (Wistar rats [1]; 3 mg/kg p.o.): increase in paw pressure withdrawal threshold
mechanical hyperalgesia (Wistar rats [1]; 3 mg/kg p.o., day 7 after iodoacetate): reduced mechanical hyperalgesia
mechanical hyperalgesia (Wistar rats [1]; 10 mg/kg p.o., day 7 after iodoacetate): reduced mechanical hyperalgesia
mechanical hyperalgesia (Wistar rats [1]; 10 mg/kg p.o., day 14 after iodoacetate): did not show a statistically significant effect
mechanical hyperalgesia (Wistar rats [1]; [6]): reduced mechanical hyperalgesia
improvement of tactile allodynia (Wistar rats [2]; 30 mg/kg p.o., day 3 after iodoacetate, 60 minutes after drug): improved
improvement of tactile allodynia (Wistar rats [2]; [6]): improved
improvement of tactile allodynia (Wistar rats [2]; lower doses (3 and 10 mg/kg p.o.)): showed a trend for such improvement
reversal of the TNF induced reduction of grip strength (Sprague Dawley rats [3]; 10 mg/kg i.p.): significant reversal
MPE versus vehicle, grip strength (Sprague Dawley rats [3]; 10 mg/kg i.p.): significantly different from vehicle
reversal of the TNF induced reduction of grip strength (Sprague Dawley rats [3]; 30 mg/kg i.p.): significant reversal
MPE versus vehicle, grip strength (Sprague Dawley rats [3]; 30 mg/kg i.p.): significantly different from vehicle
dose at which the effect of TNF on grip strength is reversed / grip strength improved (Sprague Dawley rats [3]): 10 mg/kg
Maximal Possible Effect (MPE) versus vehicle, muscle pressure (Sprague Dawley rats [4]; 10 mg/kg i.p.): significantly different from vehicle
reversal of muscular mechanical hyperalgesia (withdrawal thresholds to pressure) (Sprague Dawley rats [4]; 30 mg/kg i.p.): complete reversal
Maximal Possible Effect (MPE) versus vehicle, muscle pressure (Sprague Dawley rats [4]; 30 mg/kg i.p.): significantly different from vehicle
muscle hyperalgesia induced by TNF injection in the paw pressure test, dose dependence (Sprague Dawley rats [4]; 3, 10, 30 mg/kg i.p.): dose dependently improves

Cc1c(N(C)CS(=O)(=O)O)c(=O)n(-c2ccccc2)n1C [metamizol]
reversal of the TNF induced reduction of grip strength (Sprague Dawley rats [3]; 2 mg/kg i.p.): significant reversal
MPE versus vehicle, grip strength (Sprague Dawley rats [3]; 2 mg/kg i.p.): significantly different from vehicle
reversal of muscular mechanical hyperalgesia (withdrawal thresholds to pressure) (Sprague Dawley rats [4]; 2 mg/kg i.p.): complete reversal
Maximal Possible Effect (MPE) versus vehicle, muscle pressure (Sprague Dawley rats [4]; 2 mg/kg i.p.): significantly different from vehicle

NCC1(CC(=O)O)CCCCC1 [gabapentin]
reversal of the TNF induced reduction of grip strength (Sprague Dawley rats [3]; 100 mg/kg i.p.): significant reversal
MPE versus vehicle, grip strength (Sprague Dawley rats [3]; 100 mg/kg i.p.): significantly different from vehicle
dose at which the effect of TNF on grip strength is reversed / grip strength improved (Sprague Dawley rats [3]): 100 mg/kg
reversal of muscular mechanical hyperalgesia (withdrawal thresholds to pressure) (Sprague Dawley rats [4]; 100 mg/kg i.p.): significant reversal
Maximal Possible Effect (MPE) versus vehicle, muscle pressure (Sprague Dawley rats [4]; 100 mg/kg i.p.): significantly different from vehicle
full reversal of the muscle hyperalgesia (Sprague Dawley rats [4]): Neither pregabalin nor gabapentin lead to a full reversal

CC(C)C[C@H](CN)CC(=O)O [pregabalin]
reversal of the TNF induced reduction of grip strength (Sprague Dawley rats [3]; 100 mg/kg i.p.): significant reversal
MPE versus vehicle, grip strength (Sprague Dawley rats [3]; 100 mg/kg i.p.): significantly different from vehicle
dose at which the effect of TNF on grip strength is reversed / grip strength improved (Sprague Dawley rats [3]): 100 mg/kg
reversal of muscular mechanical hyperalgesia (withdrawal thresholds to pressure) (Sprague Dawley rats [4]; 30 mg/kg i.p.): significant reversal
Maximal Possible Effect (MPE) versus vehicle, muscle pressure (Sprague Dawley rats [4]; 30 mg/kg i.p.): significantly different from vehicle
reversal of muscular mechanical hyperalgesia (withdrawal thresholds to pressure) (Sprague Dawley rats [4]; 100 mg/kg i.p.): significant reversal
Maximal Possible Effect (MPE) versus vehicle, muscle pressure (Sprague Dawley rats [4]; 100 mg/kg i.p.): significantly different from vehicle
full reversal of the muscle hyperalgesia (Sprague Dawley rats [4]): Neither pregabalin nor gabapentin lead to a full reversal
